Among the data in ChEMBL document CHEMBL1127272, “2-Aryl-1-azabicyclo[2.2.2]octanes as novel nonpeptide substance P antagonists” (Bioorg Med Chem Lett, 1994) are IC50 and pKB values, retold here.

As a reminder, the IC50 is the concentration that gives 50% inhibition. In general, pKB refers to −log10 of the KB, conventionally taken in molar units.

The target of assay [1] is T1, Substance-P receptor (Homo sapiens, UniProt P25103). Description: Inhibitory concentration for displacement of [3H]-Substance P (SP) in human IM-9 cells. The class given is cell-based. On the technique in general: In a radioligand displacement assay an active substance lowers the binding of a labelled ligand.
Assay [2] concerns the target T1, Substance-P receptor. Kind of assay: Tested for Tachykinin receptor 1 antagonistic activity in dog isolated carotid artery(DCA) system at a concentration of 5*10e-6 M. In kind it is functional. Particulars: Canis lupus familiaris; target entry is the homologue from another species.

T1 sequence (P25103 whole entry): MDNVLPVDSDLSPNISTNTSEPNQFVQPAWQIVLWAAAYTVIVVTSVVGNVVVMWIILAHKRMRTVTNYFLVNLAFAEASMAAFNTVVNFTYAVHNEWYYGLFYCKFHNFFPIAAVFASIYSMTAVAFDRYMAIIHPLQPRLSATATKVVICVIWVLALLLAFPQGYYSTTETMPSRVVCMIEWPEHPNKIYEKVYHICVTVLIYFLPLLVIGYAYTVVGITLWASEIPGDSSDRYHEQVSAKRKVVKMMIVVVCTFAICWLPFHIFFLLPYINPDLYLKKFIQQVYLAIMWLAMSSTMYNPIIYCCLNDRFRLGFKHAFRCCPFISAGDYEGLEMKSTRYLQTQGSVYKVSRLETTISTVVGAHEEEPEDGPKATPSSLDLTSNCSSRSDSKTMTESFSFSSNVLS

The compound `COc1ccccc1CN[C@@H]1C2CCN(CC2)[C@H]1c1ccccc1` gave a half-maximal inhibitory concentration (IC50) in assay [1] of 700 nM. This counts as sub-micromolar.

The compound `COc1ccccc1CN[C@H]1C2CCN(CC2)[C@H]1c1ccccc1` yielded a half-maximal inhibitory concentration (IC50) in assay [1] of 140 nM.

`COc1ccc(CN[C@H]2C3CCN(CC3)[C@H]2c2cccc(Cl)c2)c(OC)c1`: the negative-log KB (pKB) in assay [2] is 7.

For `COc1ccccc1CN[C@@H]1C2CCN(CC2)[C@H]1c1cccc(Cl)c1`, the concentration for half-maximal inhibition (IC50) in assay [1] was 240 nM.

Turning to `COc1ccc(CN[C@@H]2C3CCN(CC3)[C@@H]2c2cccc(Cl)c2)c(OC)c1` (single isomer, unassigned), the IC50 in assay [1] is 39 nM.

For `Clc1cccc([C@H]2[C@@H](NCc3ccccc3Cl)C3CCN2CC3)c1`, the concentration for half-maximal inhibition (IC50) in assay [1] is 230 nM.

In assay [1], `COc1ccccc1CN[C@H]1C2CCN(CC2)[C@H]1c1cccc(Cl)c1` yielded an IC50 of 20 nM.

As for `COc1cccc([C@H]2[C@@H](NCc3ccccc3OC)C3CCN2CC3)c1`, in assay [1], the half-maximal inhibitory concentration (IC50) is 160 nM.

Take `COc1ccc(CN[C@H]2C3CCN(CC3)[C@@H]2c2cccc(Cl)c2)c(OC)c1`: in assay [1], the concentration for half-maximal inhibition (IC50) stood at 350 nM. This IC50 lies about 2.2-fold higher than the previous one.
